Measurements reported in ChEMBL document CHEMBL1145498, “A systematic interaction map of validated kinase inhibitors with Ser/Thr kinases” (Proc Natl Acad Sci U S A, 2007).

Experiments:
[1] = biological target: Cyclin-dependent kinase 1 (Homo sapiens, UniProt P06493); experiment: Inhibition of Cdk1
[2] = biological target: Glycogen synthase kinase-3 beta (Homo sapiens, UniProt P49841); experiment: Inhibition of GSK3-beta
[3] = biological target: Calcium/calmodulin-dependent protein kinase type 1G (Homo sapiens) (UniProt Q96NX5)
Calcium/calmodulin-dependent protein kinase type 1G (Homo sapiens), sequence (Q96NX5 whole entry): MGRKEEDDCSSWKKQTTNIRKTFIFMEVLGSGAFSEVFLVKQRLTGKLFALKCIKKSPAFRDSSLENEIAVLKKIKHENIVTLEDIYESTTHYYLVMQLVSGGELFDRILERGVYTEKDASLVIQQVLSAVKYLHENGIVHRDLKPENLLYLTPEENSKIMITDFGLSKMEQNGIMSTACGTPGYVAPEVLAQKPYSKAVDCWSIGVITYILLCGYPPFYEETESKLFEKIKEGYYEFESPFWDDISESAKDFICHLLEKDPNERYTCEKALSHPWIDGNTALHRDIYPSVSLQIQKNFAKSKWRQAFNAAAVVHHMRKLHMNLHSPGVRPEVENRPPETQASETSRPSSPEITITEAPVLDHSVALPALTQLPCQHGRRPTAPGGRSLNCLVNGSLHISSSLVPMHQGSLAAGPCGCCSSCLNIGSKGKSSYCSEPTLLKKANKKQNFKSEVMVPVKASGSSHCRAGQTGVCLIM

[4] = biological target: Calcium/calmodulin-dependent protein kinase kinase 2 (Homo sapiens, UniProt Q96RR4)
[5] = biological target: Dual specificity protein kinase CLK3 (Homo sapiens) (UniProt P49761)
Dual specificity protein kinase CLK3 (Homo sapiens), sequence (P49761 whole entry, looked up, canonical isoform): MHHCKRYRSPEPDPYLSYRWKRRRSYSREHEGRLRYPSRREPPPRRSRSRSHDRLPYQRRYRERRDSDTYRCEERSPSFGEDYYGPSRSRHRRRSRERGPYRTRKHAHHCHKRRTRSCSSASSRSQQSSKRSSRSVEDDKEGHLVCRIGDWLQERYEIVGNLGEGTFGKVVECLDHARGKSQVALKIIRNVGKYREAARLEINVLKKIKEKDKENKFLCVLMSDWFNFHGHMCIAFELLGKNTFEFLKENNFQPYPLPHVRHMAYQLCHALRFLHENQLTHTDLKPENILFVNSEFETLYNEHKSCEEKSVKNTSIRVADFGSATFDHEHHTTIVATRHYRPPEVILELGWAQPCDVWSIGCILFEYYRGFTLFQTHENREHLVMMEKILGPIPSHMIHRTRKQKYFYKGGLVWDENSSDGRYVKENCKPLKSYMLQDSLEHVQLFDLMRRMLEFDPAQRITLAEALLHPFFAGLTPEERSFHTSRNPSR

[6] = biological target: Casein kinase I isoform gamma-1 (Homo sapiens) (UniProt Q9HCP0)
Casein kinase I isoform gamma-1 (Homo sapiens), sequence (Q9HCP0 whole entry, looked up, canonical isoform): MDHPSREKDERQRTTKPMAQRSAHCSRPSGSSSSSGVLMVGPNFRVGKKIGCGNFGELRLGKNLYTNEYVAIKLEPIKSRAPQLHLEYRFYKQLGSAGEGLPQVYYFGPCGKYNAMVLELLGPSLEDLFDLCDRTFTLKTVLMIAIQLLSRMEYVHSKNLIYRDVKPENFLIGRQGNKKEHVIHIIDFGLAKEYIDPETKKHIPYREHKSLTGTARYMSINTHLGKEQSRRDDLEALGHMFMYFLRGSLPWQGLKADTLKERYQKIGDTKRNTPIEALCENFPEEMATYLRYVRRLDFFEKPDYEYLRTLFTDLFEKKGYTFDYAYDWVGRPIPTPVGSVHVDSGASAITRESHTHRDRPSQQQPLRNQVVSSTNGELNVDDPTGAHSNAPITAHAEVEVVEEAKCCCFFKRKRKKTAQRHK

[7] = biological target: Serine/threonine-protein kinase pim-1 (Homo sapiens) (UniProt P11309)
Serine/threonine-protein kinase pim-1 (Homo sapiens), sequence (P11309 whole entry, looked up): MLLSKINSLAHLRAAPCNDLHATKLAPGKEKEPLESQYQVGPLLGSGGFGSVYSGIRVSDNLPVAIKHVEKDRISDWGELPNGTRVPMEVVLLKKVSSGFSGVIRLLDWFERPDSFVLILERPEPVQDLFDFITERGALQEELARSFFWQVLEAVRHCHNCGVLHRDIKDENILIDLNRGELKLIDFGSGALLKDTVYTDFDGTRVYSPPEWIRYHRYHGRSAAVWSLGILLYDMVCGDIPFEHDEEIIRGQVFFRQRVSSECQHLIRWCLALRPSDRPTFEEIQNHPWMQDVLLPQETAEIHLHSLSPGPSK

[8] = biological target: Serine/threonine-protein kinase 10 (Homo sapiens) (UniProt O94804)
Serine/threonine-protein kinase 10 (Homo sapiens), sequence (O94804 whole entry, looked up): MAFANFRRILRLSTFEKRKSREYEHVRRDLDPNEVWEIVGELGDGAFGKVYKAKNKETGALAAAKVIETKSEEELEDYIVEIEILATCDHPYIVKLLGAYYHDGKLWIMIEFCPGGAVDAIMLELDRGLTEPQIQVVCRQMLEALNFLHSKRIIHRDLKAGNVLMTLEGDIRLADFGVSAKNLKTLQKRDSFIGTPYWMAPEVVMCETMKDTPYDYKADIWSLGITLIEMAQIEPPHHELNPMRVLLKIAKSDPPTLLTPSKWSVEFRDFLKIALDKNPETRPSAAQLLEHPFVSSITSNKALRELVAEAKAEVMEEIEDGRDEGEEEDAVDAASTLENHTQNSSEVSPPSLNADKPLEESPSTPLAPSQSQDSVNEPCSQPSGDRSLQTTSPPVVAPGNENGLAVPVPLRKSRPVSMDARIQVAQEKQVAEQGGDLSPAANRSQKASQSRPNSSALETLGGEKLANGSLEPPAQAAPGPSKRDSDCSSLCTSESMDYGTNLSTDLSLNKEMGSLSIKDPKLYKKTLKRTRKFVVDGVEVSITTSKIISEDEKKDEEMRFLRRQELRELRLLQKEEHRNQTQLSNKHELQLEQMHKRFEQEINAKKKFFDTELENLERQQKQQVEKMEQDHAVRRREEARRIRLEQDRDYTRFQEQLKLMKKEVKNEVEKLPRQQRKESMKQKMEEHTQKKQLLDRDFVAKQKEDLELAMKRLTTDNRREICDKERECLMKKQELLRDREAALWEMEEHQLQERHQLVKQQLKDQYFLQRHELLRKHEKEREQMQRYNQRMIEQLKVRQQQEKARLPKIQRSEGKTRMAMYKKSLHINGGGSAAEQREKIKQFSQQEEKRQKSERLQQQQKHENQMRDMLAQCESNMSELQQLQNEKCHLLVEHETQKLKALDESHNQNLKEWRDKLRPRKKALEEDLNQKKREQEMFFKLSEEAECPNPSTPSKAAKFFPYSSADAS

[9] = biological target: Serine/threonine-protein kinase 16 (Homo sapiens) (UniProt O75716)
Serine/threonine-protein kinase 16 (Homo sapiens), sequence (O75716 whole entry): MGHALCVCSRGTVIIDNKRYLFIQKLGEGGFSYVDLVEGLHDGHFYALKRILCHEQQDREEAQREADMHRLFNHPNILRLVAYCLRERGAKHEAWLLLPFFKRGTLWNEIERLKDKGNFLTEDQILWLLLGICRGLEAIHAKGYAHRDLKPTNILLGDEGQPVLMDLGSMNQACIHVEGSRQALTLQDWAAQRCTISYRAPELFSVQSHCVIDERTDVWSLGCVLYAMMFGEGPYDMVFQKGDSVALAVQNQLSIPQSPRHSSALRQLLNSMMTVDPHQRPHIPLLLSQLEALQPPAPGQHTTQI

[10] = biological target: T1, Serine/threonine-protein kinase 4 (Homo sapiens) (UniProt Q13043)
T1 sequence (whole entry): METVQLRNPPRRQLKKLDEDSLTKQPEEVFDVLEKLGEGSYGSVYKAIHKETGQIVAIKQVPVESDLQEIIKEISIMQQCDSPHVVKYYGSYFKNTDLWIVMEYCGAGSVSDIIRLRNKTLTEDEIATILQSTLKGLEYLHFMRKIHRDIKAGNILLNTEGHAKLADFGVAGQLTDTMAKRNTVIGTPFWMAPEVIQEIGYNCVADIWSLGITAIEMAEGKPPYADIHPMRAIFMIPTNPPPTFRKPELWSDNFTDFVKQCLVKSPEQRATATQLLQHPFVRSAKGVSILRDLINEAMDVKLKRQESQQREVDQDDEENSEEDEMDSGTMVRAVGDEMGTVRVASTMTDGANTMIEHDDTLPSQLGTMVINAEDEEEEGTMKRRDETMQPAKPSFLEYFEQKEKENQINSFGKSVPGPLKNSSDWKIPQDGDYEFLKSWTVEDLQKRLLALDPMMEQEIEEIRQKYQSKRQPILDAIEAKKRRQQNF

[11] = biological target: TRAF2 and NCK-interacting protein kinase (Homo sapiens) (UniProt Q9UKE5)
TRAF2 and NCK-interacting protein kinase (Homo sapiens), sequence (Q9UKE5 whole entry, looked up): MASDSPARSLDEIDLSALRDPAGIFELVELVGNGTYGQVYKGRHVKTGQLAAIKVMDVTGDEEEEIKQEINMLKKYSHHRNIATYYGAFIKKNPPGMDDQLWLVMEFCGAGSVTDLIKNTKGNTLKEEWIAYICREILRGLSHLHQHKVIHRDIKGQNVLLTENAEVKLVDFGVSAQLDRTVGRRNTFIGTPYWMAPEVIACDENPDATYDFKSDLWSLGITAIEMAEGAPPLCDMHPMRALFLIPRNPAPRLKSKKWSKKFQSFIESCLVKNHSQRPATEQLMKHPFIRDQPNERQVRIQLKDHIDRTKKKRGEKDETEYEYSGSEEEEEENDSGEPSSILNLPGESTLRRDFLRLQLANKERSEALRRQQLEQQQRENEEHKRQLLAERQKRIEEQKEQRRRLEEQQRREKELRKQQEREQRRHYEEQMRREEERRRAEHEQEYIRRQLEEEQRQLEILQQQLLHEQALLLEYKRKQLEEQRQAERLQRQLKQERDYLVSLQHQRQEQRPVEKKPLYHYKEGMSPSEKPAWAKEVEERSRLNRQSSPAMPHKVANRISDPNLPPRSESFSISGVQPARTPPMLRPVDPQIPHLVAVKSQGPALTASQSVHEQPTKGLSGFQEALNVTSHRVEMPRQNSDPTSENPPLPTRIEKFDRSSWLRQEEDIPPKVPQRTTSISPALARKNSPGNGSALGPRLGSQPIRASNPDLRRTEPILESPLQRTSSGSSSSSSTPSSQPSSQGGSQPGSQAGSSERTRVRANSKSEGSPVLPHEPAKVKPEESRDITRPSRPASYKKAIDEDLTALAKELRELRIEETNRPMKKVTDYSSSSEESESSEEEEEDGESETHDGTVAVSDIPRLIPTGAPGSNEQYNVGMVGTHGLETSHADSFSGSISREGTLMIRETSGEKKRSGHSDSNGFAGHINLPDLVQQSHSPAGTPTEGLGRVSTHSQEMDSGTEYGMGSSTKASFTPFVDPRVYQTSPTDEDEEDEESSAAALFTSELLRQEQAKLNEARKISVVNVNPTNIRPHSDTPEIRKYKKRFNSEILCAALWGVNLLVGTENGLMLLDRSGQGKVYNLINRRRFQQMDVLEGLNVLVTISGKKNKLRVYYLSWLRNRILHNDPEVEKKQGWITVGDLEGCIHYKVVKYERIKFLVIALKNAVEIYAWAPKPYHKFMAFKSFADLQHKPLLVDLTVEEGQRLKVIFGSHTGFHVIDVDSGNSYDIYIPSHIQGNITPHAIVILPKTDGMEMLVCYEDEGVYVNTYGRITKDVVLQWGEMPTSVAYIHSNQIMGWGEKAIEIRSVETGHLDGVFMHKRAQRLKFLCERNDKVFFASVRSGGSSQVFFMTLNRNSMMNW

[12] = biological target: Serine/threonine-protein kinase 25 (Homo sapiens) (UniProt O00506)
Serine/threonine-protein kinase 25 (Homo sapiens), sequence (O00506 whole entry, looked up): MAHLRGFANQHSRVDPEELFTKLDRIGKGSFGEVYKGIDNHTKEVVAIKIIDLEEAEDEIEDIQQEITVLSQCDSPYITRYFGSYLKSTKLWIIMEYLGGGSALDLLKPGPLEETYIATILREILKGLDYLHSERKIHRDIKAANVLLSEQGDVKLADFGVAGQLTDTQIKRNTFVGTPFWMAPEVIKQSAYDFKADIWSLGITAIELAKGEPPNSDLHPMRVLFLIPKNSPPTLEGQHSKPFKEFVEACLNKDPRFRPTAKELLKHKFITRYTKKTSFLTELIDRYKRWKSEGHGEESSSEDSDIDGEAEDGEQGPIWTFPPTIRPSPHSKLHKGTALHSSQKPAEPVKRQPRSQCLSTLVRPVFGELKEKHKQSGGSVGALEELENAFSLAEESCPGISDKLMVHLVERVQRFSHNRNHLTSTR

[13] = biological target: T2, Protein kinase C epsilon type (Homo sapiens, UniProt Q02156); experiment: Inhibition of PKCepsilon
T2 sequence (Q02156 whole entry): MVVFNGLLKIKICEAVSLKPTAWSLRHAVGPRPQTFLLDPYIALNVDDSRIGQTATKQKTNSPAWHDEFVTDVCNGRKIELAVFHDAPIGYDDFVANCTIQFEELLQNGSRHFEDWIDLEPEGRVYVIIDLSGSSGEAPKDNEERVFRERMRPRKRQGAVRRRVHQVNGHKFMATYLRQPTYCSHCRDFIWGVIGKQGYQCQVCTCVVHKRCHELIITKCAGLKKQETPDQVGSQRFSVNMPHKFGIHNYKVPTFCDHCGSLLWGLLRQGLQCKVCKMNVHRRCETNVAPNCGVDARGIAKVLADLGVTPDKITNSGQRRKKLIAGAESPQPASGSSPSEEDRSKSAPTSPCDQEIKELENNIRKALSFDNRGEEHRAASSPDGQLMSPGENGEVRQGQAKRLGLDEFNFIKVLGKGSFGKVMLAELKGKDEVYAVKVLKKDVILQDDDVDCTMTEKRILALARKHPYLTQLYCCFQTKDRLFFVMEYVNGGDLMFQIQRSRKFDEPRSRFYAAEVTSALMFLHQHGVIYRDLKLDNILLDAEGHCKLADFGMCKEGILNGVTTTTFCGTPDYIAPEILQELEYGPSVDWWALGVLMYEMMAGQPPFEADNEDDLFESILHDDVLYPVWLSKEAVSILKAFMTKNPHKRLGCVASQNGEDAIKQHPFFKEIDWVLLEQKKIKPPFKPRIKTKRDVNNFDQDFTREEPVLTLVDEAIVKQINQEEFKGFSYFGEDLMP

[14] = biological target: Proto-oncogene tyrosine-protein kinase Src (Homo sapiens, UniProt P12931); experiment: Inhibition of Src
[15] = biological target: Epidermal growth factor receptor (Homo sapiens, UniProt P00533)
[16] = biological target: Mitogen-activated protein kinase 3 (Homo sapiens, UniProt P27361); experiment: Inhibition of ERK1
[17] = Inhibition of Cdk4/cyclin D1
[18] = biological target: Myosin light chain kinase, smooth muscle (Homo sapiens, UniProt Q15746); experiment: Inhibition of myosin light chain kinase

SMILES: O=C1Nc2ccc(S(=O)(=O)O)cc2/C1=C1/Nc2ccccc2/C1=N\O
- IC50 [1]: 0.005 µM
- IC50 ([2]; read-out: IC50): 0.08 µM
- ΔTm [3]: 2 °C
- ΔTm [4]: 4.9 °C
- ΔTm [5]: 3.5 °C
- ΔTm [6]: 4 °C
- ΔTm [7]: 3.3 °C
- ΔTm [8]: 0.5 °C
- ΔTm [9]: 4.9 °C
- ΔTm [10]: 7.4 °C
- ΔTm [11]: 2.4 °C
- ΔTm [12]: 2.2 °C

SMILES: COc1ccc2c(c[n+](C)c3c4cc5c(cc4ccc23)OCO5)c1OC [CHELERYTHRINE CHLORIDE]
- IC50 [13]: 0.024 µM
- ΔTm [3]: -1.1 °C
- ΔTm [4]: -1.6 °C
- ΔTm [5]: -1 °C
- ΔTm [6]: 0 °C
- ΔTm [7]: -4.4 °C
- ΔTm [8]: -1.1 °C
- ΔTm [9]: -0.4 °C
- ΔTm [10]: -0.4 °C
- ΔTm [11]: -1.3 °C
- ΔTm [12]: -0.3 °C

SMILES: NCCNc1ncc(C(N)=O)c(Nc2cccc(C(F)(F)F)c2)n1
- IC50 [13]: 5.1 µM
- ΔTm [3]: 5.7 °C
- ΔTm [4]: 0.6 °C
- ΔTm [5]: 1 °C
- ΔTm [6]: 1 °C
- ΔTm [7]: 5.7 °C
- ΔTm [8]: 2.8 °C
- ΔTm [9]: 1.9 °C
- ΔTm [10]: 0.7 °C
- ΔTm [11]: 1.3 °C

SMILES: Cc1cc(C=C2C(=O)C=CC2=O)cc(C)c1O
- IC50 ([14]; read-out: IC50): 4.4 µM
- IC50 [15]: 440 µM
- ΔTm [3]: -0.4 °C
- ΔTm [4]: -1.4 °C
- ΔTm [5]: -1.5 °C
- ΔTm [6]: 0.1 °C
- ΔTm [7]: -1.4 °C
- ΔTm [8]: 1.2 °C
- ΔTm [9]: 3.2 °C
- ΔTm [10]: 0.8 °C
- ΔTm [11]: -4.1 °C
- ΔTm [12]: 0.4 °C

SMILES: COc1cc2c(cc1OC)-c1n[nH]c(Nc3cccc(F)c3)c1C2
- IC50 [1]: > 10 µM
- ΔTm [3]: 1.6 °C
- ΔTm [4]: 1.6 °C
- ΔTm [5]: 0.4 °C
- ΔTm [6]: 0.7 °C
- ΔTm [7]: 0.5 °C
- ΔTm [8]: 2.5 °C
- ΔTm [9]: 0.4 °C
- ΔTm [10]: 0.7 °C
- ΔTm [11]: 0.7 °C

SMILES: O=C1Cc2c([nH]c3ccc(Br)cc23)-c2ccccc2N1 [KENPAULLONE]
- IC50 [16]: 20 µM
- ΔTm [3]: 0.3 °C
- ΔTm [4]: 2 °C
- ΔTm [5]: 0.8 °C
- ΔTm [6]: 0.3 °C
- ΔTm [7]: 2.6 °C
- ΔTm [8]: 2.2 °C
- ΔTm [9]: 0.7 °C
- ΔTm [10]: 4.9 °C
- ΔTm [11]: 6.7 °C
- ΔTm [12]: 2.7 °C

SMILES: N#CCCc1ccc2c(c1)-c1[nH]c3ccc([N+](=O)[O-])cc3c1CC(=O)N2 [ALSTERPAULLONE 2]
- IC50 ([2]; read-out: Log IC50 (converted)): 0.1 µM
- Log IC50 [17]: -7
- IC50 ([14]; read-out: Log IC50 (converted)): 0.316 µM
- ΔTm [3]: 1.6 °C
- ΔTm [4]: 2.3 °C
- ΔTm [5]: 2.3 °C
- ΔTm [6]: 2.4 °C
- ΔTm [7]: 1.9 °C
- ΔTm [8]: 4 °C
- ΔTm [9]: 3 °C
- ΔTm [10]: 5.9 °C
- ΔTm [11]: 5.4 °C
- ΔTm [12]: 4.2 °C

SMILES: O=C1C(Cl)=C(N2C(=O)CCC2=O)C(=O)c2ccccc21
- IC50 [16]: 82.9 µM
- ΔTm [3]: -1.9 °C
- ΔTm [4]: -2.5 °C
- ΔTm [5]: -1.3 °C
- ΔTm [6]: 0.7 °C
- ΔTm [7]: 0.9 °C
- ΔTm [8]: -0.5 °C
- ΔTm [9]: -0.1 °C
- ΔTm [10]: -0.8 °C
- ΔTm [11]: -2.4 °C
- ΔTm [12]: -0.5 °C

SMILES: Cl.Cn1cc(C2=C(c3ccc4cc5n(c4c3)CCC(CN)C5)C(=O)NC2=O)c2ccccc21 (configuration not stated)
- IC50 [13]: 0.039 µM
- IC50 [18]: 3.7 µM
- ΔTm [3]: 0.3 °C
- ΔTm [4]: -1.3 °C
- ΔTm [5]: 0 °C
- ΔTm [6]: 0.5 °C
- ΔTm [7]: 6.3 °C
- ΔTm [8]: 5.3 °C
- ΔTm [9]: 1.2 °C
- ΔTm [10]: 7.1 °C
- ΔTm [11]: 0.3 °C
- ΔTm [12]: 0.7 °C
